Measurements reported in patent publication US10456553B2, “Device and methods for targeted tissue drug delivery” (NATIVE CARDIO, INC., priority 2012, dated 2019).

Tests used:
atria = assay: Atrial electrophysiology (right atrial ERP) and atrial fibrillation induction after pericardial or intravenous procainamide; assay type: in vivo; conditions: swine
Protocol: (§1) Studies were conducted to determine the differences between intrapericardial (IPC) drug delivery versus intravenous (IV) drug delivery of the antiarrhythmic drug procainamide. In one study, using two groups of swine, investigators administered procainamide intravenously (n=6) or […] (n=7) using sequential intravenous doses of 2, 8, 16 mg/kg (cumulative was 2, 10, 26 mg/kg) or sequential pericardial doses of 0.5, 1, and 2 mg/kg (cumulative was 0.5, 1.5, 3.5 mg/kg). Each dose was re-suspended in 10 ml and administered at a rate of 1 mL/min. The pharmacokinetics of the two drug delivery methods was statistically significant. Pericardial delivery produced peak drug concentrations within the range of 250 to 900 ug/ml while the measurable level for plasma concentration was low (<1 ug/mL). […] It should be noted that the pericardial fluid concentration during intravenous delivery was 100 times less than that of intrapericardial delivery. The atrial electrophysiologic values were similar between both sets of delivery methods, indicating a lower direct dose can achieve similar therapeutic responses. The 3.5 mg/kg cumulative pericardial dose increased right atrial ERP by 22% from the baseline, while the 10 and 26 mg/kg cumulative intravenous doses prolonged atrial ERP by 24% and 18%, respectively. In addition, the cumulative doses of 3.5 mg/kg (pericardial) and 26 mg/kg (intravenous) prevented atrial fibrillation induction in 71% and 83% of the animals, respectively.

[1] = tested on: ventricular electrophysiology; assay: Ventricular electrophysiology, heart rate and systemic blood pressure after pericardial or intravenous procainamide; assay type: in vivo; conditions: swine
Protocol: as §1

[2] = parameters: species or system swine; conditions: in vivo
Protocol: as §1, with “In addition, the cumulative doses of 3.5 mg/kg (pericardial) and 26 mg/kg (intravenous) prevented atrial fibrillation induction in 71% and 83% of the animals, respectively.” left out

In the case of `CCN(CC)CCNC(=O)c1ccc(N)cc1` [procainamide], the “animals in which atrial fibrillation induction was prevented” value (atria; 3.5 mg/kg cumulative dose, pericardial) is reported as 71%, the “increase of right atrial ERP from the baseline” value (atria; 3.5 mg/kg cumulative pericardial dose) is reported as 22% and the “prolongation of atrial ERP” value (atria; 10 mg/kg cumulative intravenous dose) is reported as 24%. The “animals in which atrial fibrillation induction was prevented” value (atria; 26 mg/kg cumulative dose, intravenous) was 83%, the “prolongation of atrial ERP” value (atria; 26 mg/kg cumulative intravenous dose) was 18% and the “atrial ventricular conduction times” value ([1]; 26 mg/kg intravenous dose) was “prolonged”. The “interventricular conduction (RV and LV activation)” value ([1]; 26 mg/kg intravenous dose) was “reduced”, the “effects on ventricular electrophysiology, heart rate, or systemic blood pressure” value ([1]; pericardial delivery) was “no significant effects” and the “concentrations within the pericardial fluid” value ([2]; iv) was “equal to that of the plasma concentration”. For the same compound, the “pericardial fluid concentration during intravenous delivery relative to intrapericardial delivery” value ([2]; swine) was 100 times less.
